Some test systems named below: DMS 273 small cell lung; KM20L2 colon; LXFL 529 NSCLC; M19-MEL melanoma; RXF-631 renal; XF 498 CNS; MDA-N; DMS 114 small cell lung; HOP-18 NSCLC; P388 leukemia; SN12K1 renal.
Holding throughout (test): NCI tumour cell line growth inhibition, 48 h

Molecules are shown by their SMILES. “And” between values parts separate entries of the source, which are not always exact repeats. Equal entries are not always repeated.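 Interpolation was linear, between the two tested concentrations surrounding the appropriate level; five concentrations were tested over 48 hours in 96-well plates. Abbreviation: GI50, concentration required for 50% inhibition of growth. TGI denotes the concentration required for complete inhibition of growth.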

For `CC(=O)Oc1cc2c(cc1OC(C)=O)C1(C)CCC2(C)c2cc(OC(C)=O)c(OC(C)=O)cc21`, the TGI was more than 100 µM in the assay on DMS 273 small cell lung; 79.5 µM in the assay on KM20L2 colon; 19.6 µM in the assay with LXFL 529 NSCLC; 75.2 µM in the assay on M19-MEL melanoma; more than 100 µM in the assay with RXF-631 renal; 29.1 µM with XF 498 CNS.
As to `Oc1ccc2ccccc2c1N=Nc1cccc2ccccc12`, in the assay with MDA-N, the TGI was more than 100 µM.
In the case of `Cc1cn(C2CC(OC(=O)c3ccc(Cl)cc3)C(COC(=O)c3ccc(Cl)cc3)O2)c(=O)[nH]c1=O` (stereo not drawn), in the assay on MDA-N, the TGI is more than 100 µM.
Regarding `COC(=O)C(=O)CC(=O)CCn1[nH]c(=O)c(Cl)c(Cl)c1=O`, the TGI in the assay on DMS 114 small cell lung, with DMS 273 small cell lung, in the assay on KM20L2 colon, in the assay on LXFL 529 NSCLC, with M19-MEL melanoma and with XF 498 CNS was more than 100 µM in each case.
Regarding `O=C1C(=O)c2ccccc2C(O)=C1C(C1=C(O)c2ccccc2C(=O)C1=O)c1ccc(Cl)cc1`, the TGI with MDA-N was 3.74 µM.
Take `CCC[CH2][Sn]([CH2]CCC)([O]C(=O)CN)[O]C(=O)CN`: the GI50 in the assay with DMS 114 small cell lung was 17.9 µM; in the assay with DMS 273 small cell lung it was 38.6 µM; in the assay on KM20L2 colon it was 63.6 µM; in the assay on LXFL 529 NSCLC, 11.4 µM; in the assay with M19-MEL melanoma it was 49.7 µM; with XF 498 CNS it was 19.6 µM. Also, the TGI with DMS 114 small cell lung was 46.5 µM; in the assay with DMS 273 small cell lung, more than 100 µM; with KM20L2 colon, more than 100 µM; with LXFL 529 NSCLC, 26 µM; in the assay with M19-MEL melanoma, more than 100 µM; in the assay on XF 498 CNS, 48 µM.
Regarding `CC(=O)c1ccc(NC(=O)/C(CC(=O)c2sc(-c3cccnc3)nc2C)=N/NC(N)=O)cc1`, the TGI with DMS 114 small cell lung, in the assay on KM20L2 colon, in the assay with LXFL 529 NSCLC, in the assay on M19-MEL melanoma and with XF 498 CNS was more than 100 µM in each case.
With `O=C(Nc1ccc(Cl)cc1)C1C(=O)C(=O)N(c2ccc(Cl)cc2)C1=O` (stereo not drawn), the TGI with DMS 114 small cell lung, with DMS 273 small cell lung, with HOP-18 NSCLC, in the assay with KM20L2 colon, in the assay with LXFL 529 NSCLC and in the assay on M19-MEL melanoma was more than 100 µM throughout. Moreover, the TGI with RXF-631 renal and with XF 498 CNS was more than 100 µM throughout.
On to `Cc1ccc(S(=O)(=O)N/N=C2\CCCCC23CCC(=O)NC3)cc1` (stereo not drawn), for which the TGI in the assay with DMS 114 small cell lung, in the assay with DMS 273 small cell lung, with HOP-18 NSCLC, with KM20L2 colon, in the assay with LXFL 529 NSCLC and in the assay with M19-MEL melanoma was more than 100 µM in each case. In the assay on RXF-631 renal, this compound showed a TGI of more than 100 µM.
`C=C(C)C1CC2(C)C(C)CC(O)CC2C(OC(=O)C=C(C)C)C1O` (stereo not drawn) returned a TGI with MDA-N of more than 100 µM.
As to `COc1ccc([C@@]2(O)c3c(ccc(O)c3OC)[C@H]2OC)c(OC)c1`, the TGI in the assay on DMS 114 small cell lung was 75.9 µM; in the assay on KM20L2 colon it was more than 100 µM; in the assay on LXFL 529 NSCLC it was more than 100 µM; in the assay on M19-MEL melanoma, more than 100 µM; in the assay with XF 498 CNS, more than 100 µM.
In the assay on MDA-N, `CN(C)CCOc1ccc([N+](=O)[O-])c2cccnc12` yielded a TGI of more than 100 µM.
For the compound `N#C/C(=C/c1cccc(Oc2ccccc2)c1)c1ccccc1`, the TGI with DMS 114 small cell lung, with HOP-18 NSCLC, in the assay on LXFL 529 NSCLC, with M19-MEL melanoma and in the assay with XF 498 CNS was more than 100 µM throughout.
Take `COc1cc(NS(=O)(=O)c2ccc(C)cc2)c2nccnc2c1`: the TGI in the assay with DMS 114 small cell lung is 40.8 µM; with DMS 273 small cell lung, more than 100 µM; in the assay with HOP-18 NSCLC it was more than 100 µM; with KM20L2 colon it was more than 100 µM; in the assay with LXFL 529 NSCLC, more than 100 µM; in the assay on M19-MEL melanoma, 55 µM. This compound gave a TGI in the assay with XF 498 CNS of more than 100 µM.
For the compound `O=NNc1ccc2ccccc2n1`, the TGI in the assay on MDA-N was more than 100 µM.
Consider `N[C@H](C(=O)O)[C@@H]1CC(Cl)=NO1`, for which the TGI with DMS 114 small cell lung is 258 µM; in the assay on DMS 273 small cell lung it was 328 µM; in the assay on HOP-18 NSCLC, more than 1000 µM; in the assay with KM20L2 colon it was more than 1000 µM; in the assay on MDA-N it was more than 1000 µM; in the assay with P388 leukemia, 16 µM. Also, the values for the TGI in the assay with SN12K1 renal and in the assay with XF 498 CNS were more than 1000 µM and 250 µM, respectively. Also, the GI50 in the assay on MDA-N was 57.2 µM.
For `NC1=NN(c2ccccc2)C(=O)C1C(=O)CCC(=O)Nc1cccc(Cl)c1` (stereo not drawn), the TGI in the assay with DMS 114 small cell lung, in the assay with DMS 273 small cell lung, in the assay with HOP-18 NSCLC, with KM20L2 colon, in the assay on LXFL 529 NSCLC and with M19-MEL melanoma was more than 100 µM throughout. In addition, the TGI in the assay on XF 498 CNS was more than 100 µM.
In the assay with MDA-N, `COCCOC(=O)C1=C(O)c2ccccc2S(=O)(=O)N1C` showed a TGI of more than 100 µM.
As to `Cc1ccc(S(=O)(=O)OC2CC=CC2)cc1`, the TGI with DMS 114 small cell lung, in the assay with DMS 273 small cell lung, in the assay with HOP-18 NSCLC, in the assay on KM20L2 colon, in the assay on LXFL 529 NSCLC and in the assay with M19-MEL melanoma was more than 100 µM in each case. This compound also gave a TGI with XF 498 CNS of more than 100 µM.
For the compound `COc1ccc(C=O)cc1O[Si](C)(C)C(C)(C)C`, the TGI in the assay with DMS 114 small cell lung, in the assay on DMS 273 small cell lung, with HOP-18 NSCLC, in the assay with KM20L2 colon, in the assay on LXFL 529 NSCLC and with M19-MEL melanoma was more than 100 µM each time.
For the compound `N#CCC(=O)N/N=C1/C(=O)N(c2ccc(Cl)cc2)C(=O)C(=O)C1c1nc2ccccc2s1` (stereo not drawn), the TGI in the assay on DMS 114 small cell lung, in the assay on DMS 273 small cell lung, in the assay on KM20L2 colon, in the assay with LXFL 529 NSCLC, in the assay with M19-MEL melanoma and in the assay with XF 498 CNS was more than 100 µM throughout.
`CCCCCCCCCCCCCCCCCCOC[C@H](COP(=O)(O)O[C@H]1[C@H](O)[C@@H](O)[C@H](O)C[C@H]1O)OC`: in the assay with MDA-N, the GI50 was 64.1 µM and 12 µM; the TGI was > 100 µM and 25.4 µM.
In the assay with MDA-N, `CN(C)Cc1cc(C(F)(F)F)ccc1C(O)(c1ccccc1)c1ccccc1` gave a TGI of 33.7 µM.
Turning to `NCCCNCCS`, the TGI in the assay with DMS 273 small cell lung, with HOP-18 NSCLC, in the assay with KM20L2 colon, in the assay on LXFL 529 NSCLC, with MDA-N and in the assay on RXF-631 renal was more than 100 µM each time. This compound also came in with a TGI in the assay on XF 498 CNS of more than 100 µM.

(Values after PubChem BioAssay (NCI).)
